From patent US6084072A, “Purified lectin and methods of use” (The Regents of the University of Michigan, priority 1993, dated 2000)
Values joined by “and” are separate entries in the source; they are usually repeats but may differ in a detail not shown here. Identical values can stand only once.

Experiments:
FAP colonic tissue = experiment: Lectin histochemistry, familial adenomatous polyposis (FAP) colonic tissue; assay type: binding, human
Source text: Full thickness specimens of colonic tissue were obtained from colectomy specimens for familial adenomatous polyposis at Johns Hopkins Hospital, fixed in formalin, and embedded in paraffin for tissue sectioning. The tissue specimens contained normal-appearing flat mucosa familial adenomatous polyposis, or FAP-normal, as well as a polypoid, adenomatious tissue familial adenomatous polyposis, or FAP-abnormal.
(§1) Four micron paraffin embedded tissue sections attached to glass slides were deparaffinized by serial incubations in xylene (twice), absolute ethanol (thrice), 95% ethanol, 70% ethanol, water and finally equilibrated in phosphate buffered saline (PBS), pH 7.0, containing 0.1% bovine serum albumin (BSA) commercially available from Sigma Corp of St. Louis, Mo. The slides were blotted dry adjacent to the tissue sections, and biotinylated lectin was added at a concentration of 10 μg/ml (for ACA) and 20 μg/ml (for PNA) in a quantity sufficient to completely cover the hydrated tissue (100-2001 μl). The lectin was rinsed off after a 30 minute incubation by eight 2-second dips into phosphate buffered saline. The slides were again blotted, and the tissue covered with Streptavidin-horseradish peroxidase (HRP) obtained from Zymed Laboratories, San Francisco, Calif. at a concentration of 10 μg/ml for 30 minutes. The slides were rinsed as mentioned above, and the pigmented reaction product developed by the addition of a freshly prepared chromogen reagent solution prepared within two hours of use as follows.
3,3'-diaminobenzidine was aliqotted at 5 mg/mL in 0.01 M (Tris) tris hydroxy methyl amino methane saline, pH 7.5 and frozen at -70° C. until use. For use, the aliquot was thawed, diluted 1:10 in 0.01 M (Tris) tris hydroxy methyl amino methane saline pH 7.5, and 3.3 μL of 30% H2 O2 were added to each 5 ml. This solution was allowed to stand for 10 min, and 100-200 μl was applied to the tissue sections that had been incubated earlier with biotinylated lectin and Streptavidin-HRP. After 10 min, the slides were rinsed with albumin-free phosphate buffered saline. […]
A second method for scoring tissues was used to survey normal colonic tissues, adenomatous polyps, and cancers. For these studies, individual epithelial "units" were counted as either positive or negative; i.e., each crypt of Lieberkuhn or neoplastic gland was considered an independent scorable unit, and the tissue score was expressed in terms of the percentage of units with any degree of definite labeling as from 1^+ to 4^+. […]
Therefore, each individual crypt of Lieberkuhn was given a score from 0-4^+, and the labeling was expressed as a "weighted average", or, the sum of scores from 100 crypts, which could range from 0 (all crypts not labeled) to 400 (all 100 crypts maximally labeled). […]

[1] = system: well differentiated colonic adenocarcinoma sections; experiment: Inhibition of lectin binding with hapten sugars on tissue sections; parameters: species or system human; key to Labeling score: 4^+: Maximum labeling of the brown reaction product; 0: No staining of the slide compared to control sections; 1^+: trace or weak staining definitely not seen on control slides; 2+3^+: stronger staining, but definitely less than maximal
Procedure: as §1
3,3'-diaminobenzidine was aliqotted at 5 mg/mL in 0.01 M (Tris) tris hydroxy methyl amino methane saline, pH 7.5 and frozen at -70° C. until use. For use, the aliquot was thawed, diluted 1:10 in 0.01 M (Tris) tris hydroxy methyl amino methane saline pH 7.5, and 3.3 μL of 30% H2 O2 were added to each 5 ml. This solution was allowed to stand for 10 min, and 100-200 μl was applied to the tissue sections that had been incubated earlier with biotinylated lectin and Streptavidin-HRP. After 10 min, the slides were rinsed with albumin-free phosphate buffered saline. The tissues were briefly counterstained for 50 seconds with Gill's #3 hematoxylin bovine serum albumin, commercially available from Sigma Corp. of St. Louis, Mo., rinsed with water, and serially dehydrated using graded alcohols and xylene, and embedded in Permount, a trademarked, commercially available product of Allied-Fischer Scientific of Livonia, Mich.
The specificity of lectin binding was evaluated by preincubating the biotinylated lectin with inhibitory hapten sugar for 1-2 hours prior to its application to the tissue. In each instance, the reagents were prepared so that the final concentration of lectin on the slide was either 10 or 20 μg/ml and the hapten sugar was as indicated in the results. Galactose, lactose, GalNAc, and galactose-β1-3N-acetylgalactosamine-α-O-benzyl (T-antigen-α-O-benzyl) were also obtained from Sigma Corp.
The stained sections were examined with a light microscope using a 25× and 40× objective lenses and 10× eyepiece. Evaluation of lectin binding required the use of several approaches. First, the binding specificity was confirmed by coincubation of lectin with hapten sugars known to bind the lectin maximally. Maximum labeling of the brown reaction product was arbitrarily assigned a score 4^+. See Boland, C. R., Bresalier, R. S., and Roberts, J. A. "Assay of lectin binding sites in colonic cancer-associated mucins: comparison of fluorescence microscopy with a quantitative chromatographic technique." J. Histochem. Cytochem., 36: 1329-1334, 1988. No staining of the slide compared to control sections (i.e., in which lectin was omitted from the staining procedure) was assigned a score of 0. Intermediate scores of 1^+ (trace or weak staining definitely not seen on control slides) and 2+3^+ (stronger staining, but definitely less than maximal) were assigned. […] See Boland. This method was used to confirm the binding specificity to known "positive" tissues and to evaluate changes in lectin binding after neuraminidase treatment.
Specimens of well differentiated colonic cancers were incubated with biotinylated lectins. Working concentrations on the slide were 10 μg/ml for ACA and 20 μg/ml for PNA. The hapten sugars galactose (Gal), N-acetylgalactosamine (GalNAc), and Galβ1,3GalNAc-α-O-benzyl (T-antigen) were used to inhibit lectin binding to the tissues. […]

[2] = system: asialo-ovine submaxillary mucin; experiment: Metal analysis of amaranthin activity in the precipitation assay; assay type: binding
Procedure: For metal analysis two methods were used to determine if metals were necessary for amaranthin activity. 1) Amaranthin was dialyzed against 1 N acetic acid at 4° C. overnight, and then against 20 mM phosphate buffer at pH 7.2. The acid dialyzed amaranthin was then used in the standard precipitation assay with asialo-ovine submaxillary mucin and the indicated additions. 2) After dialysis into metal free buffer, amaranthin was incubated for 1 hour at room temperature in the presence of the indicated ethylene diamine tetraacetate (EDTA) concentrations. Asialo-ovine submaxillary mucin was then added, and the precipitation assay was carried out as usual. All glassware was acid-washed and buffers were passed over a Chelex 100 column, a trademarked, column commercially available from Bio-Rad to remove divalent metal ions.

amaranthin
Weighted Average (0-400) (FAP colonic tissue; FAP, mean ± SEM, listed as ACA): 224±76
Percent of epithelial glands with bound lectin (FAP colonic tissue; all 28 specimens, mean): 67±6%
Percent of Epithelial Units Labeled (FAP colonic tissue; flat tissue, mean ± SEM, listed as ACA): 60±7% and 60%±7%
Percent of Epithelial Units Labeled (FAP colonic tissue; polypoid tissue, mean ± SEM, listed as ACA): 83±7% and 83%±7%
GalNAc concentration that inhibited labeling [1]: ≥ 250 mM
T-antigen concentration that inhibited labeling [1]: ≥ 100 µM
galactose concentration required for partial inhibition of binding [1]: 400 mM
lactose concentration required for partial inhibition of binding [1]: 400 mM
Labeling score ([1]; GalNAc 250 mM): Trace
Labeling score ([1]; T-antigen 100 μM): 0
Labeling score ([1]; T-antigen 200 μM): 0
Labeling score ([1]; T-antigen 400 μM): 0
% Control reactivity ([2]; 5 mM EDTA): 100%
% Control reactivity ([2]; 25 mM EDTA): 100%
% Control reactivity ([2]; Acid dialyzed amaranthin & AOSM): 81%
% Control reactivity ([2]; Acid dialyzed amaranthin & AOSM, 0.1 mM CaCl2): 80%
% Control reactivity ([2]; Acid dialyzed amaranthin & AOSM, 0.1 mM MgCl2): 80%
% Control reactivity ([2]; Acid dialyzed amaranthin & AOSM, 0.1 mM MnCl2): 79%
effect of EDTA on precipitating activity, in words ([2]; ethylene diamine tetra acetate 5-25 mM): had no effect
